Data published in US4419517A, “4a-Aryl-trans-decahydroisoquinolines” (E. I. Du Pont de Nemours & Co., priority 1975, dated 1983).

What was measured:
[1] = system: phenylquinone-induced stretching or writhing syndrome; assay: Phenylquinone writhing test, oral, female white mice (modified from Siegmund et al.); type: in vivo; details: for ED50: Mus musculus, po, suspended in 1% Methocel, fasted female white mice, phenylquinone i.p. 23 or 30 min later, observed 10 min, moving average method, read-out: oral ED50 (effective analgesic dose for 50% of the mice); for analgesic activity of the optical isomers, in words: dextro and laevo forms; for ED50 (optical isomers, phenylquinone writhing test described in Example A): optical isomers of N-methyl-4a-phenyl-trans-decahydroisoquinoline, mice, test as in Example A
Protocol: In a standard mouse test modified from Siegmund et al. [Proc. Soc. Exp. Biol. Med. 95, 729 (1957)], a test compound suspended in 1% Methocel® was given orally to fasted (17-21 hours) female white mice, 5-20 animals per double blind test. Aqueous (0.01%) phenyl-p-benzoquinone (phenylquinone) was injected intraperitoneally at 23 or 30 minutes later using 0.25 ml per mouse. […] The effective analgesic dose for 50% of the mice (ED50) was calculated by the moving average method of Weil [Biometrics 8, 249 (1952)].The oral ED50 dosages of several compounds of the invention are: […]

[2] = J. Am. Chem. Soc. 72, 712 (1950); cited from earlier work
Straub tail = Straub tail in mice; type: in vivo; details: dose not stated
Source text: Included in this group are the compounds of examples 9, 10, 16 and 18.

Row | SMILES | ED50 [1] [mg/kg] | Straub tail in mice (evidence for appearing to be nonaddicting) (Straub tail) | also measured
1 | CN1CC[C@]2(c3cccc(O)c3)CCCC[C@H]2C1 (relative stereo) [Example 4, N-methyl-4a-(m-hydroxyphenyl)-trans-decahydroisoquinoline] | 2.3 | – | –
2 | CN1CC[C@@]2(c3ccccc3)CCCC[C@@H]2C1 (relative stereo) [Dextro (Ex. 2H-2), dextro-N-Methyl-4a-phenyl-trans-decahydroisoquinoline] | – | – | analgesic activity of the optical isomers, in words ([1]; phenylquinone writhing test): active; analgesic effectiveness of dextro form compared with laevo form ([1]; dextro vs laevo form, phenylquinone writhing test): significantly more effective than the laevo form; ED50 (optical isomers, phenylquinone writhing test described in Example A) [1]: 3.5 mg/kg
3 | CN1CC[C@]2(c3ccccc3)CCCC[C@@H]2C1 (relative stereo) [N-methyl-4a-phenyl-cis-decahydroisoquinoline] | – | – | analgesic activity [2]: low analgesic activity
4 | CN1CC[C@@]2(c3ccccc3)CCCC[C@@H]2C1 (relative stereo) [Laevo (Ex. 2H-1), laevo-N-Methyl-4a-phenyl-trans-decahydroisoquinoline] | – | – | analgesic activity of the optical isomers, in words ([1]; phenylquinone writhing test): active; ED50 (optical isomers, phenylquinone writhing test described in Example A) [1]: 23.0 mg/kg
5 | COc1cccc(C23CCN(CC4CC4)CC2CCC(C)C3)c1 (stereo not drawn) [Example 18, N-cyclopropylmethyl-4a-(m-methoxyphenyl)-6-methyl-trans-decahydroisoquinoline] | – | do not produce the Straub tail | –
6 | COc1cccc([C@@]23CCCC[C@H]2CN(C)CC3)c1 (relative stereo) [Example 3-E, N-Methyl-4a-(m-methoxyphenyl)-trans-decahydroisoquinoline] | 3 | – | –
7 | CCCCCCN1CC[C@]2(c3cccc(O)c3)CCCC[C@H]2C1 (relative stereo) [Example 16, N-(n-Hexyl)-4a-(m-hydroxyphenyl)-trans-decahydroisoquinoline] | – | do not produce the Straub tail | –
8 | COc1cccc([C@@]23CCCC[C@H]2CN(CC2CC2)CC3)c1 (relative stereo) [Example 9, N-Cyclopropylmethyl-4a-(m-methoxyphenyl)-trans-decahydroisoquinoline] | 8 | do not produce the Straub tail | –
9 | Oc1cccc([C@@]23CCCC[C@H]2CN(CC2CC2)CC3)c1 (relative stereo) [Example 10, N-Cyclopropylmethyl-4a-(m-hydroxyphenyl)-trans-decahydroisoquinoline] | – | do not produce the Straub tail | –
